# Laboratory results taken from paper PMC12833730, “Discovery of a First‐in‐Class Covalent Allosteric SHP1 Inhibitor with Immunotherapeutic Activity” (Angewandte Chemie (International Ed. in English), 2025).
# Tests used:
# SHP1 [1] = molecular target: T1, SHP1 (Homo sapiens, UniProt P29350); assay: Vanadate protection jump-dilution experiment; format: biochemical; settings: 500 µM sodium orthovanadate, 30 min
# T1 construct: SHP1, residues 245-543; made in house; host or cells: E. coli BL21(DE3)
# T1 sequence (P29350 245-543): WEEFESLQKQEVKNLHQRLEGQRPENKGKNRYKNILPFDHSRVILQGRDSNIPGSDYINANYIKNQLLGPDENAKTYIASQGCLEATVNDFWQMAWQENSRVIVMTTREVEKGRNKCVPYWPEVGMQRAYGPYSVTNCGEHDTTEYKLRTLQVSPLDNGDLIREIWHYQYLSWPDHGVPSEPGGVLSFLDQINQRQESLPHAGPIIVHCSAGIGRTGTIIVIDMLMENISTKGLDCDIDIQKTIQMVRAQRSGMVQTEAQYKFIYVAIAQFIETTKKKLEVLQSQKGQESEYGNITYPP
# Method: To further understand the mode of M029 action and ascertain whether M029 binds the SHP1 active site or a yet undefined novel site in SHP1, we performed a vanadate (VO4 ^3−) protection experiment. Vanadate is a reversible and competitive PTP inhibitor,^[ [76], [77] ^] and thus excessive vanadate would be expected to fully occupy the PTP active site and prevent covalent modifications of residues within the active site pocket. In this assay, SHP1 was co‐incubated with 30 µM M029 and 500 µM sodium orthovanadate or vehicle control for 30 min. The SHP1‐inhibitor complex was then rapidly diluted 100‐fold into a buffered solution containing 10 mM pNPP, and immediately, the absorbance at 405 nm was monitored over time to determine the remaining phosphatase activity.
# SHP1 [2] = molecular target: T1, SHP1; assay: IC50 after 10-min/60-min preincubation, DiFMUP phosphatase assay; format: biochemical; settings: negative control analogs of M029
# From the text: The PTP‐catalyzed reaction involves a nucleophilic attack by the conserved active site Cys side chain on the phosphorus atom of phosphotyrosine in the substrate.^[ [53] ^] As such, the PTPs could serve as prime targets for covalent inhibition. Previously described activity‐based probes or covalent ligands for the PTPs are either phosphotyrosine isosteres or thiol‐reactive compounds that covalently modify the active site residues (including the catalytic Cys) and lack sufficient isozyme specificity.^[ [54], [55], [56], [57], [58], [59], [60], [61] ^] Inspired by the resurgence in covalent inhibitors for difficult drug targets, we set out to discover covalent SHP1 inhibitors by screening for electrophilic fragments that bind covalently to SHP1. This strategy is increasingly utilized to identify novel ligands for a target of interest.^[ [47], [62], [63] ^] We assembled a library of 4600 Cys reactive molecules from the Enamine covalent fragment collections containing 49.0% acrylamide, 38.1% chloroacetamide, 5.15% chloromethylketone, 5.20% activated nitrile, 2.10% epoxide, and 0.53% disulfide (Figure S1A). We carried out a high‐throughput biochemical fragment screening of this curated commercially available library against the SHP1 catalytic domain (residues 245–543). Each fragment (500 µM) was incubated with SHP1 (500 nM) for 30 min at room temperature before diluting the reaction 5.5‐fold with 24.45 mM para‐nitrophenyl phosphate (pNPP) to measure the residual PTP activity. This concentration of substrate was chosen to out‐compete any remaining fragment to reduce the inactivation of SHP1 during the enzymatic hydrolysis of pNPP. After a 2‐min incubation at 25 °C, the reaction was quenched by the addition of 5N NaOH, and the production of para‐nitrophenol was determined by absorbance at 405 nm. This assay format afforded a Z’‐factor of 0.70 (Figure S1B), indicating a robust screen to reliably identify hit molecules. To enhance the probability of discovering covalent ligands with inherent preference for SHP1, we also counter‐screened the same library against SHP2, the closest homolog of SHP1, and two other widely studied PTPs, PTP1B and PTPN22 (also called LYP). […] Among these, 31 were repurchased based on their observed preference for SHP1 and structural diversity, 11 of which were confirmed as potential covalent inhibitors for SHP1 based on the time dependency of their half‐maximal inhibition concentration (IC50) values determined with a 10‐min and 60‐min preincubation time, respectively (Table 1).
# To further confirm the time-dependent inhibition and determine the IC50 of acquired hits, repurchased compounds from Enamine were serially diluted in a 96-well plate, followed by the addition of proteins at 200 nM. After 10-minute and 60-minute preincubation, 2 µL of the mixture was transferred into 100 µM 6,8-Difluoro-4-Methylumbelliferyl Phosphate (DiFMUP, Invitrogen, cat# D6567) at a final volume of 200 µL. The reaction was allowed to proceed for 5 minutes and quenched by the addition of 40 µl of a 160 µM solution of bpV(Phen) (Sigma-Aldrich, cat# SML0889). The fluorescence signal was measured using a CLARIOstar Plus Microplate Spectrophotometer (BMG Labtech) using excitation and emission wavelengths of 340 nm and 450 nm, respectively. Data were fitted using Prism GraphPad 10.1.1.
# IL-2 in Jurkat T cells = assay: IL-2 mRNA / production; format: cell-based; settings: 20 µM
# Method: (§1) Supernatants from lysed cells were reduced, treated with iodoacetamide to cap thiol residues, and digested by trypsin for bottom‐up proteomics analysis. […] LCK is the direct substrate of SHP1 and ERK1/2, and PLCγ is the downstream effector protein of LCK‐mediated TCR signaling. […] Statistical analyses were performed with Graphpad Prism software 10.4.2 through the one‐way ANOVA test using Turkey post‐hoc comparison. ****p < 0.0001 was considered significant.
# (§2) To further confirm M029 cellular target engagement, we investigated the effect of M029 on T cell function. SHP1 plays a negative role in T cells, and deletion of SHP1 in T cells lowers the activation threshold and enhances antitumor immunity.^[ [30], [31], [32], [33] ^] Mechanistically, SHP1 attenuates T cell receptor (TCR) signaling via dephosphorylation of the lymphocyte‐specific protein tyrosine kinase LCK.^[ [31], [84], [85], [86] ^] T cell activation leads to increased expression and secretion of interleukin 2 (IL‐2)^[ [87] ^] while the removal of SHP1 in T cells enhances IL‐2 production, cell proliferation, and cytolysis capacity.^[ [30], [32] ^] Accordingly, we sought to assess the impact of targeting SHP1 with M029 on TCR‐LCK signaling and T cell activation. […] M029 also dose‐dependently promoted IL‐2 production (Figure 4c). […] These findings corroborate that the observed increase in LCK phosphorylation and its downstream signaling indeed resulted from SHP1 inhibition by M029.
# [3] = system: LCK, PLCγ and ERK1/2 phosphorylation in Jurkat T cells; assay: TCR-LCK signaling immunoblot; format: cell-based; settings: 20 µM
# Method: as §1, §2
# Immunoblotting: Cultured cells were lysed with ice-cold lysis buffer (50 mM Tris, pH 8.0, 150 mM NaCl, 10% Glycerol, 1% Triton-X-100) supplied with phosphatase inhibitor (Bimake) and protease inhibitor mixture (Roche Applied Science). Equal amounts of protein were resolved by SDS-PAGE, transferred to a nitrocellulose membrane, and subjected to immunoblotting. […]
SMILES,SHP1 activity after 100-fold dilution of vanadate complex (SHP1 [1]),SHP1 inhibitory activity (in words) (SHP1 [2]),IL-2 secretion (IL-2 in Jurkat T cells),"phosphorylation levels of LCK, PLCγ, and ERK1/2 [3]"
"[Na+].[Na+].[Na+].[O]=[V]([O-])([O-])[O-] [sodium orthovanadate, reference compound]",fully recovered activity,,,
"O=C(CCl)Nc1ccccc1 [PhClAc, reference compound]",,inactive against SHP1,neither impacted,neither impacted
"CC(=O)Nc1ccc(S(=O)(=O)Nc2sccc2C#N)cc1 [M054, N-(4-(N-(3-cyanothiophen-2-yl)sulfamoyl)phenyl)acetamide]",,loses the ability to inactivate SHP1,neither impacted,neither impacted
